Experimental findings from patent US20190365675A1, “COMPOSITIONS FOR THE PREVENTION AND/OR TREATMENT OF ALCOHOL USE DISORDERS” (SERVICIO ANDALUZ DE SALUD, priority 2016, published 2019) are described below.

One assay concerns MD2. In words: MD2 protein expression in frontal cortex after ethanol intoxication. Format: in vivo, Wistar rats. The conditions noted are these: 2-4 h after last ethanol, OEA pre-treatment. The protocol:
The animals were treated with intragastric (i.g.) ethanol 3 times a day using an i.g. cannula (16G needle, Fisher Scientific, Waltham, Mass., USA), following a protocol based on a slightly modified standard 4-day alcohol intoxication pattern (Bernier et al., 2002a, b) (FIG. 1A). The ethanol doses were administered every 8 h for a total time of 4 days. The rats treated with ethanol received an initial loading dose of 5 g/kg of ethanol in a 30% solution (w/v) and then a maximum maintenance dose of 3 g/kg, which were determined based on blood ethanol levels (BEL). This repeated standard alcohol intoxication paradigm kept BEL intoxication relatively constant in a range of sedation/ataxia (190 to 430 mg/dl, Table 3), according to the 6-point alcohol intoxication behavior scale (Majchrowicz, 1975). The mean dose of ethanol/rat/day (days 1-4) was 7.06 g/kg, similar to other studies (Obernier et al., 2002a, b). OEA (5 mg/kg, i.p., except initial dose of 10 mg/kg i.p.; synthesized as described in Giuffrida et al., 2000) was dissolved in the vehicle (5% Tween-80 in saline solution) and injected 10 minutes before each of the administrations of ethanol by an intragastric gavage. […] The autoradiograph was quantified by densitometry (NIH ImageJ® software, National Biosciences, Lincoln, Nebr. USA) and expressed as optical density (OD). […]

For the next assay, the system named is HMGB1. In words: HMGB1 levels (ELISA) and nuclear/cytoplasmic ratio (Western blot) in frontal cortex after ethanol intoxication. Format: in vivo, Wistar rats. On the procedure: The animals were treated with intragastric (i.g.) ethanol 3 times a day using an i.g. cannula (16G needle, Fisher Scientific, Waltham, Mass., USA), following a protocol based on a slightly modified standard 4-day alcohol intoxication pattern (Bernier et al., 2002a, b) (FIG. 1A). The ethanol doses were administered every 8 h for a total time of 4 days. The rats treated with ethanol received an initial loading dose of 5 g/kg of ethanol in a 30% solution (w/v) and then a maximum maintenance dose of 3 g/kg, which were determined based on blood ethanol levels (BEL). This repeated standard alcohol intoxication paradigm kept BEL intoxication relatively constant in a range of sedation/ataxia (190 to 430 mg/dl, Table 3), according to the 6-point alcohol intoxication behavior scale (Majchrowicz, 1975). […] The autoradiograph was quantified by densitometry (NIH ImageJ® software, National Biosciences, Lincoln, Nebr. USA) and expressed as optical density (OD). […] The levels of soluble HMGB1, TNF-α, IL-1β and MCP-1 were determined by means of a commercially available enzyme-linked immunosorbent assay kit (ELISA) (Elabscience Biotechnology Co., Ltd., China, for HMGB-1; RayBiotech®, GA, USA, for TNF-α, IL-1β, and MCP-1). The nuclear/cytosol HMGB1 fraction was determined by means of Western blot analysis.

For `CCCCCCCC/C=C\CCCCCCCC(=O)NCCO` [OEA, oleoylethanolamide], the “Ethanol-induced increase in MD2 protein” value in the assay with MD2 was “inhibited”. Also, the “Ethanol intoxication-induced increase in HMGB1 (ELISA)” value with HMGB1 (2-4 h after last ethanol, OEA 5 mg/kg i.p. (initial 10 mg/kg) 10 min before each ethanol) is “prevented”. Further, the “HMGB1 n/c ratio (nuclear/cytoplasmic, Western blot)” value in the assay on HMGB1 (OEA + ethanol, ethanol alone 1.21, control 1.3) came to 1.48.
